Assay results as given in PMC10761696, “Avapritinib-based SAR studies unveil a binding pocket in KIT and PDGFRA” (Nature Communications, 2024).
Values joined by “and” are separate entries in the source; they are usually repeats but may differ in a detail not shown here. Identical values can stand only once. Like-named read-outs stand apart in the source and are kept apart here.

Experiments:
[1] = ref WO2022/081626; cited from earlier work
[2] = molecular target: T1, PDGFRA-D842V (Homo sapiens, UniProt P16234, D842V); assay: Activity-based HTRF KinEASE assay, PDGFRA-D842V; type: biochemical
T1 construct: purchased Invitrogen PV4203 (lot #2343231B)

[3] = molecular target: KIT-D816H (Homo sapiens, UniProt P10721, D816H); assay: Activity-based HTRF KinEASE assay, KIT-D816H; type: biochemical
[4] = test system: ZR-75-1; assay: CellTiter-Glo (CTG) EC50, ZR-75-1 breast cancer control cell line; type: cell-based, human; conditions: Homo sapiens
Protocol: (§1) Cell line authenticity was confirmed by STR analysis at Eurofins Genomics. All cell lines were tested regularly for mycoplasma contamination using the Mycoplasmacheck Service at Eurofins Genomics. […] Following incubation for 24 h in a humidified atmosphere at 37 °C and 5% CO2, cells were treated with inhibitors in serial dilutions ranging from 30 µM down to 0.1 nM using an Echo650 acoustic liquid handler (Beckman Coulter). Cell viability was analyzed on day 5 using the CellTiter-Glo® assay (Promega) using 500 ms integration time. The obtained data were normalized to the plate positive control (30 µM staurosporine) and negative control (DMSO) and subsequently analyzed and fitted with the Quattro Software Suite (Quattro Research) using a four-parameter logistic model. As quality control, the Z’-factor was calculated from 16 positive and negative control values. Only assay results showing a Z’-factor ≥0.5 were used for further analysis. All experimental points were measured in duplicates for each plate and were independently replicated in at least three plates.

[5] = test system: MDA-MB-175VII; assay: CellTiter-Glo (CTG) EC50, MDA-MB-175VII breast cancer control cell line; type: cell-based, human
Protocol: as §1

[6] = test system: GIST-T1; assay: CellTiter-Glo (CTG) GR50, GIST-T1; conditions: for GI50: Homo sapiens
[7] = test system: T1-T670I; assay: CellTiter-Glo (CTG) GR50, T1-T670I; conditions: Homo sapiens
[8] = test system: T1-V654A; assay: CellTiter-Glo (CTG) GR50, T1-V654A; conditions: Homo sapiens
[9] = test system: T1-a-5258; assay: CellTiter-Glo (CTG) GR50, T1-a-5258; conditions: Homo sapiens
[10] = test system: T1-a-D842V; assay: CellTiter-Glo (CTG) GR50, T1-a-D842V
[11] = test system: SK-LMS-1; assay: CellTiter-Glo (CTG) GR50, SK-LMS-1 control cell line; conditions: for CTG GR50 SK-LMS-1, single determinations: raw data of Supp. Tab. 2, independent experiments, unit from Supp. Tab. 2; for CTG GR50 SK-LMS-1: mean ± s.d., n = 3, control cell line
[12] = test system: GIST-48B; assay: CellTiter-Glo (CTG) GR50, GIST-48B control cell line (off-target toxicity); conditions: for ratio GIST-48B/ T1-a-D842V / GIST-48B/D842V: ratio of GR50 values; for GIST-48B/D842V: source data sheet
[13] = MDCKII-MDR1 permeability assay; conditions: dog; for Papp B→A at 2 h, 10 µM: MDCK-MDR1
[14] = test system: MDR1; assay: MDCKII-MDR1 permeability assay; conditions: dog; for efflux ratio at 2 h, 10 µM: MDCK-MDR1; for recovery at 2 h, 10 µM: MDCKII-MDR1, assay conc. 10
[15] = test system: D842V-mutant gastrointestinal stromal tumors (GIST); conditions: patients with D842V-mutant GIST; ref NAVIGATOR trial; cited from earlier work
[16] = test system: T1-D816E; assay: CellTiter-Glo (CTG) GR50, T1-D816E; conditions: mean ± s.d., n ≥ 3
[17] = test system: T1-a-G680R; assay: CellTiter-Glo (CTG) GR50, T1-a-G680R; conditions: raw data of Table 1, independent experiments; unit from Table 1
[18] = test system: MDCKII-MDR1 cells; assay: MDCKII-MDR1 permeability assay; conditions: for permeability class of reference compound (Comment): reference compounds of the MDCKII-MDR1 assay
[19] = mean ± s.d., n ≥ 3, ATP at KM (14 µM), read-out: HTRF IC50 PDGFRA-D842V
[20] = raw data of Table 1, independent experiments 1-3, unit from Table 1, read-out: HTRF IC50 PDGFRA-D842V, single determinations
[21] = mean ± s.d., n ≥ 3, ATP at KM (12 µM), read-out: HTRF IC50 KIT-D816H
[22] = raw data of Table 1, independent experiments, unit from Table 1, read-out: HTRF IC50 KIT-D816H, single determinations
[23] = ZR-75-1, mean ± s.d., n = 3, control cell line, read-out: CTG EC50 ZR-75-1
[24] = ZR-75-1, raw data of Supp. Tab. 2, independent experiments, unit from Supp. Tab. 2, read-out: CTG EC50 ZR-75-1, single determinations
[25] = Homo sapiens, MDA-MB-175-VII, read-out: CTG EC50 MDA-MB-175VII, mean ± s.d., n = 3, control cell line
[26] = Homo sapiens, MDA-MB-175-VII, read-out: CTG EC50 MDA-MB-175VII, single determinations, raw data of Supp. Tab. 2, independent experiments, unit from Supp. Tab. 2
[27] = GISTT1, read-out: CTG GR50 GIST-T1, single determinations, raw data of Table 1, independent experiments, unit from Table 1
[28] = GISTT1, read-out: KIT CTG GR50 GIST-T1, mean ± s.d., n ≥ 3, GR50 half-maximal growth inhibition rate
[29] = read-out: CTG GR50 T1-T670I, single determinations, raw data of Supp. Tab. 1, independent experiments, unit from Supp. Tab. 1
[30] = read-out: KIT CTG GR50 T1-T670I, mean ± s.d., n ≥ 3
[31] = read-out: CTG GR50 T1-V654A, single determinations, raw data of Supp. Tab. 1, independent experiments, unit from Supp. Tab. 1
[32] = read-out: KIT CTG GR50 T1-V654A, mean ± s.d., n ≥ 3 (* n = 2 for ava)
[33] = read-out: CTG GR50 T1-a-5258, single determinations, raw data of Supp. Tab. 1, independent experiments, unit from Supp. Tab. 1
[34] = read-out: PDGFRA CTG GR50 T1-a-5258, mean ± s.d., n ≥ 3, triple mutant D842V, G652E, V658A
[35] = MDCK-MDR1, MDCKII-MDR1 (Papp A→B), at 10 µM, 2 h, 37 °C, unit inferred
[36] = MDCK-MDR1, Papp A->B, MDCKII-MDR1, assay conc. 10, apical to basolateral

T1 sequence (P16234 24-1089 D842V): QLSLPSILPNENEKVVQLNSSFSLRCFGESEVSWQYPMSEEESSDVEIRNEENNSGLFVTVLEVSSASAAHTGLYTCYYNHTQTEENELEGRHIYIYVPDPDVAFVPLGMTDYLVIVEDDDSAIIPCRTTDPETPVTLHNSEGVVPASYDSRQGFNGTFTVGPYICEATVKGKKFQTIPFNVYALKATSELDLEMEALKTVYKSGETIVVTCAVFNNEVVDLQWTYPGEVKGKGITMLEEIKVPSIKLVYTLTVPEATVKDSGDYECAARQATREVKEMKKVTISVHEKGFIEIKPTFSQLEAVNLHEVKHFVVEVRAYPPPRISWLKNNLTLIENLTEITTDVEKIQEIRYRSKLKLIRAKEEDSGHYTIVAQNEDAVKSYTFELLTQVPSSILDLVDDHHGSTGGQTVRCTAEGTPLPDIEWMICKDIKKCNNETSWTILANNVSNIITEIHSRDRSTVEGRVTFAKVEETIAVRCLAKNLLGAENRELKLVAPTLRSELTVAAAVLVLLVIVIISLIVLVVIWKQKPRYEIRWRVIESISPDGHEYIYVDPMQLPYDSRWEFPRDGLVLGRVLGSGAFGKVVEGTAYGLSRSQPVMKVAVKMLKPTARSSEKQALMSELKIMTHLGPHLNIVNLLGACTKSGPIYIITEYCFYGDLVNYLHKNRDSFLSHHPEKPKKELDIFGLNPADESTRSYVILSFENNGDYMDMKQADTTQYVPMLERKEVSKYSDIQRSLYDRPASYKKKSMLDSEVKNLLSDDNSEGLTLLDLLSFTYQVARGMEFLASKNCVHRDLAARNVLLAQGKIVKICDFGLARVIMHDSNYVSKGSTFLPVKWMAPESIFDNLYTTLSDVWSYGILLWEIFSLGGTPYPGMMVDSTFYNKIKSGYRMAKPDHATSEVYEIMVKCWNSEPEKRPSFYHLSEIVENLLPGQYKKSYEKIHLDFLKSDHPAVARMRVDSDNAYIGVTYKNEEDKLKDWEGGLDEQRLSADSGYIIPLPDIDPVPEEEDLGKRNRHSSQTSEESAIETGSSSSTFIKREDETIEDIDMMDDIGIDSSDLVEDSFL
Chain of KIT-D816H (P10721 26-976 D816H): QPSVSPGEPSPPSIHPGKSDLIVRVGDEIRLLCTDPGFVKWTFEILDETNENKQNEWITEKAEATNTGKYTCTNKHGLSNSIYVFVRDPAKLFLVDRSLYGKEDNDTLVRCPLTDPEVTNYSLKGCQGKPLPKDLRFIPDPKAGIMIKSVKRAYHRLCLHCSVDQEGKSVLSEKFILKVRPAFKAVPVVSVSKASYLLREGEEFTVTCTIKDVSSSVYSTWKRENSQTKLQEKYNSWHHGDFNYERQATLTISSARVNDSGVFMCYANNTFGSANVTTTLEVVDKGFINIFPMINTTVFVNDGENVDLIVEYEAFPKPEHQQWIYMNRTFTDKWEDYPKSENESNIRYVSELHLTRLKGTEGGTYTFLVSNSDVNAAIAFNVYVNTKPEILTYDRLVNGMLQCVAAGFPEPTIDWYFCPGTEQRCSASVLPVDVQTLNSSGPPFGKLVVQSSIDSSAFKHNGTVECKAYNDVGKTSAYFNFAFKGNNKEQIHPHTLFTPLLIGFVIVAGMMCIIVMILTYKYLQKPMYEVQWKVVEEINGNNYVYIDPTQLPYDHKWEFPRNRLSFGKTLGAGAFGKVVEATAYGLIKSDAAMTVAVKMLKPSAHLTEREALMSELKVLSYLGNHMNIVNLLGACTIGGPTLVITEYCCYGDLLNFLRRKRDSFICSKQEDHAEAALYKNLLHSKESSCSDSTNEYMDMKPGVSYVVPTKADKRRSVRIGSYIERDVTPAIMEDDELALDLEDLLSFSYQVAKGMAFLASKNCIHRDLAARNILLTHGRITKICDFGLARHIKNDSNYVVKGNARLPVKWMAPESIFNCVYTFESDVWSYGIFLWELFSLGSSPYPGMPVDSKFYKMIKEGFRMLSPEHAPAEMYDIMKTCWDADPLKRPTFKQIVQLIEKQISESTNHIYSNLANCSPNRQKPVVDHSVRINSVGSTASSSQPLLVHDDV

SMILES | IC50 [2, 19] | IC50 [2, 20] | IC50 [3, 21] [µM] | IC50 [3, 22] | EC50 [4, 23] [µM] | EC50 [4, 24] [µM] | EC50 [5, 25] [µM] | EC50 [5, 26] [µM] | GI50 [6, 28] [µM] | GI50 [7, 30] [µM] | GI50 [8, 32] [µM] | GI50 [9, 33] [µM] | GI50 [9, 34] [µM] | CTG GR50 SK-LMS-1, single determinations [11] | ratio GIST-48B/ T1-a-D842V [12] | GIST-48B/D842V [12] | Papp B→A at 2 h, 10 µM [13] [×10⁻⁶ cm/s] | Papp A→B at 2 h, 10 µM [13, 35] [×10⁻⁶ cm/s] | CTG GR50 SK-LMS-1 [11] | other results
C[C@](N)(c1ccc(F)cc1)c1cnc(N2CCN(c3ncnn4cc(-c5cnn(CCO)c5)cc34)CC2)nc1 [BLU-263] |  |  |  |  |  |  |  |  |  |  |  |  |  |  |  |  |  |  |  | BBB permeability compared to avapritinib [1]: less BBB permeable compared to avapritinib
Cn1cc(-c2cc3c(N4CCC5(CC4)CN(c4ncc(Cc6ccccc6)cn4)C5)ncnn3c2)cn1 [Compound 7] | 0.749 ± 0.142 µM | 0.563 µM and 0.909 µM and 0.773 µM | 0.204 ± 0.084 | 0.283 µM and 0.116 µM and 0.213 µM | ≥ 10 | ≥ 10 | ≥ 10 | ≥ 10 | 0.709 ± 0.196 | ≥ 10 | 6.73 ± 0.439 | 9.97 | 9.52 ± 0.81 | ≥10 µM | 1 | 1.22 |  |  |  | GI50 [6, 27]: 0.824 µM; fold decrease in potency, GIST-T1 ([6]; comparator not clearly stated): ~ 17 fold; GI50 [7, 29]: ≥ 10 µM; GI50 [8, 31]: 6.13 µM; fold decrease in potency, T1-a-D842V ([10]; comparator not clearly stated): > 500 fold
COC(=O)N[C@@](C)(c1ccc(F)cc1)c1cnc(N2CCN(c3ncnn4cc(-c5cnn(C)c5)cc34)CC2)nc1 [Compound 12] | 0.0002 ± 0.0001 µM | 0.0003 µM and 0.0002 µM and 0.0001 µM | 0.0006 ± 0.0004 | 0.0011 µM and 0.0003 µM and 0.00053 µM | ≥ 10 | ≥ 10 | ≥ 10 | ≥ 10 | 0.06 ± 0.012 | 0.695 ± 0.135 | 0.474 ± 0.155 | 2.4 | 2.22 ± 0.35 | 6.084 µM and 5.919 µM and 10 µM | 256 | 256 | 2.76 | 12.4 | 7.334 ± 2.31 µM and 7.334 µM | Papp A→B at 2 h, 10 µM [13, 36]: 12.4 ×10⁻⁶ cm/s; efflux ratio at 2 h, 10 µM [14]: 0.22; recovery at 2 h, 10 µM ([14]; MDCK-MDR1, Recovery A->B): 25.4%; recovery at 2 h, 10 µM ([14]; MDCK-MDR1, Recovery B->A): 49.7%; GI50 [6, 27]: 0.071 µM; GI50 [7, 29]: 0.62 µM
Cn1cc(-c2cc3c(N4CCN(c5ncc([C@@](C)(NC(=O)c6ccccc6)c6ccc(F)cc6)cn5)CC4)ncnn3c2)cn1 [Compound 13] | ~0.0002 µM and 0.0002 µM | 0.0002 µM and 0.00015 µM and 0.00028 µM | 0.002 ± 0.0001 | 2.1 nM (2×) and 1.8 nM | ≥ 10 | ≥ 10 | ≥ 10 | ≥ 10 | 0.287 ± 0.176 |  |  |  |  | 8.494 µM and 10 µM | 196 | 196 | 0.47 | 3.5 | 9.498 ± 0.869 µM and 9.498 µM | Papp A→B at 2 h, 10 µM [13, 36]: 3.46 ×10⁻⁶ cm/s; efflux ratio at 2 h, 10 µM [14]: 0.13; recovery at 2 h, 10 µM ([14]; MDCK-MDR1, Recovery A->B): 81.4%; recovery at 2 h, 10 µM ([14]; MDCK-MDR1, Recovery B->A): 63.6%; fold loss of potency compared to avapritinib, T1-a-D842V ([10]; cellular assay): 3 fold; activity with respect to the control cell lines ([12]; control cell lines (Table 1, Supplementary Table 2)): completely inactive
Cn1cc(-c2cc3c(N4CCN(c5ncc([C@@](C)(N)c6ccc(F)cc6)cn5)CC4)ncnn3c2)cn1 [ava (1), avapritinib] |  |  |  |  |  |  |  | 5.7 | 0.036 ± 0.01 | 0.457 ± 0.24 | 0.357 ± 0.142 | 0.57 | 0.54 ± 0.03 | 5.269 µM and 10 µM |  |  | 3.02 | 12.5 | 8.423 ± 2.731 µM and 8.423 µM | EC50 ([5]; read-out: CTG EC50 MDA-MB-175VII, single determinations, raw data of Supp. Tab. 2, independent experiments, unit from Supp. Tab. 2): 5.75 µM and 5.88 µM; EC50 ([5]; read-out: CTG EC50 MDA-MB-175VII, mean ± s.d., n = 3, control cell line): 5.78 µM; overall response rates [15]: more than 90%; KIT CTG GR50 T1-D816E [16]: 67 ± 18 nM and 67 nM; GI50 [8, 31]: 0.256 µM; CTG GR50 T1-a-G680R, single determinations [17]: 1455 nM and 1460 nM
C[C@H]1O[C@@H](O[C@H]2[C@@H](O)C[C@H](O[C@H]3[C@@H](O)C[C@H](O[C@H]4CC[C@@]5(C)[C@H](CC[C@@H]6[C@@H]5C[C@@H](O)[C@]5(C)[C@@H](C7=CC(=O)OC7)CC[C@]65O)C4)O[C@@H]3C)O[C@@H]2C)C[C@H](O)[C@@H]1O [digoxin, reference compound] |  |  |  |  |  |  |  |  |  |  |  |  |  |  |  |  | 15.4 ± 16 |  |  | Papp A→B at 2 h, 10 µM ([13]; MDCK-MDR1, MDCKII-MDR1 (PappA→B), reference compounds, mean over routine assay runs): 1.9 ± 4.5 ×10⁻⁶ cm/s; permeability class of reference compound (Comment) [18]: efflux
CC(C)NCC(O)COc1cccc2ccccc12 (stereo not drawn) [propranolol, reference compound] |  |  |  |  |  |  |  |  |  |  |  |  |  |  |  |  |  |  |  | permeability class of reference compound (Comment) [18]: highly permeable; permeability class of reference compound (Comment) ([18]; listed as Propanolol): permeable; MDCKII-MDR1 (PappA→B) ([18]; reference compounds, mean over routine assay runs): 32 ± 10.3 10-6 cm/s
